Test results as given in a melting point compilation (Tetko et al.; mined from patent text by program, amines drawn as free bases though some values may be those of a salt).

Row | Compound | melting point [°C]
1 | CSC1C(=O)Nc2ccc(Oc3cc(F)c(C(F)(F)F)c(Cl)c3)cc21 (stereo not given) | 137 to 142
2 | COc1ccc2c(-c3cccc(F)c3)noc2c1Cl | 149 to 150
3 | CCCCCCCCCC(=O)Nc1ccc(S(=O)(=O)Nc2nnc(CC(=O)O)s2)cc1 | 190 to 191
4 | Cn1c(-c2ccc(N3CCOCC3)cc2)cnc1[C@H](Cc1ccccn1)N(C=O)c1cc2cc(Br)ccc2o1 | 173 to 174
5 | O=C(c1ccn2c1CSC2c1cccnc1)c1c[nH]c2ccccc12 (stereo not given) | 237 to 238
6 | CSc1ccc2c(c1)C(O)c1ccccc1C=C2 (stereo not given) | 117 to 118
7 | O=C(O)CCCCCOc1cccc(OCc2ccccc2)c1 | 72 to 73
8 | O=Cc1c[nH]c2c(F)cccc12 | 203 to 205
9 | Cc1ccc(-c2nc(Cc3cccc(CO)c3)c(C)o2)cc1 | 97 to 99
10 | Clc1ccc2c(c1)CN1C(=Nc3cccnc3)SC[C@@H]1C2 | 125
11 | COCOc1ccc(-c2ccc(OCOC)c(F)c2)cc1F | 76.3 to 77.3
12 | COc1ccc2nc(-c3cc(C(F)(F)F)nn3-c3ccc(S(C)(=O)=O)cc3)sc2c1 | 217 to 218
13 | O=C(O)c1cnn(OCCCC2OCCO2)c1 | 85
14 | Cc1ccccc1NC(=O)Nc1ccc(C(=O)N2Cc3cccn3Cc3ccccc32)cc1 | 155 to 158
15 | CN(C)CCN(C)C(=O)Cc1ccc(NC(=O)OCc2ccccc2)cc1 | 109 to 110
16 | CC(C)(C)NC(=O)N1CC(Oc2cccc(C(F)(F)F)c2)C1 | 105 to 107
17 | O=[N+]([O-])c1cc(C(F)(F)F)ccc1Sc1nc(-c2ccc(Cl)cc2)c(-c2ccc(Cl)cc2)[nH]1 | 264 to 266
18 | CCOc1ccc2c(c1)n(C1CCCCC1)c(=O)n2Cc1ccc(NC(=O)N(C)CCO)cc1OC | 157
19 | Nc1cn(C2OC(CO)C(O)C2O)nn1 (stereo not given) | 102 to 104
20 | Cc1[nH]c(C)c(-c2ccc(Oc3ccc(OC(F)(F)F)cc3)cc2)c(=O)c1Cl | 298 to 302
21 | COc1ccc(-c2nc(-c3cccn3CC(=O)O)sc2-c2ccc(OC)cc2)cc1 | 198 to 200
22 | O=C1CNc2ncc(I)cc2N1Cc1cc(F)ccc1C(F)(F)F | 244 to 245
23 | Nc1ccc(-c2nc3n(c2-c2ccc(N)cc2)CCS3)cc1 | 205 to 206
24 | COc1ccc(C2=NN(C3CCN(C(=O)NC(C)(C)C)CC3)C(=O)[C@@H]3CC=CC[C@H]23)cc1OC | 164 to 166
25 | O=[N+]([O-])c1ccc(OCc2ccc(Cl)cc2)cc1F | 86 to 88

Row | Compound | melting point [°C]
26 | N#CC(Nc1ccccc1[N+](=O)[O-])c1c(Cl)cccc1Cl (stereo not given) | 195
27 | COc1c(Br)cc(N)cc1C(C)=O | 93 to 94
28 | O=C(CCCCCOc1ccc2c(c1)[nH]c1ccccc12)NO | 192
29 | Cc1cc(C#N)cnc1Oc1c(Cl)cc(N)cc1Cl | 212
30 | O=C1NN=C(c2ccc(NC(=O)C(F)(F)F)cc2)C2CC12 (stereo not given) | 242 to 243
31 | Cc1c(C)c2ccc(OCCCN3CCC(NC(=O)c4ccccc4)CC3)cc2oc1=O | 201 to 203
32 | Cc1ccc(S(=O)(=O)N(C)c2ccc(Cl)cc2N)cc1 | 102
33 | CCCCS(=O)(=O)NC(CNS(=O)(=O)c1cccc(C(=O)C2CCC3(CCNCC3)CC2)c1)C(=O)O (stereo not given) | 225 to 235
34 | CS(=O)(=O)Nc1ccc(OCCCN2CCC(OC(c3ccccc3)c3ccccc3)CC2)cc1 | 41 to 43
35 | COc1ccc(-c2nc(Sc3cccc(OC)c3)n(C3CCCCO3)c2-c2ccc(OC)cc2)cc1 (stereo not given) | 123
36 | Cc1ccccc1S(=O)(=O)NC1CCc2sc(-c3ccc(=O)[nH]n3)cc2C1 (stereo not given) | 242 to 247
37 | CCOC(=O)C[C@@H](NC(=O)/C=C/S(=O)(=O)c1ccccc1)C(=O)OCC | 112 to 115
38 | O=C(Nc1ccncn1)C(CC1CCCC1)c1cccc(C(F)(F)F)c1 (stereo not given) | 113 to 115
39 | COc1cc(CO)ccc1OCc1nc(-c2ccccc2)cn1C | 126 to 127
40 | CCCCOc1nc(N)c2[nH]c(=O)n(CCCNCc3cccc(C(=O)OC)c3)c2n1 | 214 to 218
41 | COC(=O)CCC(=O)CCl | 8 to 13
42 | CCc1nc(C(=O)OC)c(Cl)c(N)c1F | 109 to 110
43 | CCc1nnc(-c2ccc(OC)cc2)n1-c1ccc(C(=O)N(C)C)cc1 | 136
44 | CCCCCn1c2ccc(CN3CCCCC3)cc2c2ccc(OC)cc21 | 64 to 65
45 | COc1cc(Nc2c(C#N)cnc3cc(NC(C)=O)c(OC)cc23)c(Cl)cc1Cl | 267 to 270
46 | O=C(O)COc1ccc(CCNS(=O)(=O)c2ccccc2)cc1 | 157 to 158
47 | Oc1ccc2c(ccn2-c2ccnc(N[C@H]3CC[C@H](O)CC3)n2)c1 | 246 to 248
48 | CCCCn1c(O)c(N=Nc2ccc(S(=O)(=O)N(CC(C)O)CC(C)O)cc2)c(C)c(C#N)c1=O (stereo not given) | 189 to 190
49 | Nc1ccccc1NC(=O)c1ccc(CNC(=O)OCc2cccnc2)cc1 | 159 to 160
50 | O=[N+]([O-])c1ccc(C=NNC2O[C@H](COCc3ccccc3)[C@@H](OCc3ccccc3)[C@H]2OCc2ccccc2)cc1 (stereo not given in full) | 93

Row | Compound | melting point [°C]
51 | Cn1cc(C(=O)NCc2ccc(Cl)cc2)c(=O)c2cc(CN3CCC[C@@H]3[C@@H](O)c3ccccc3)sc21 (relative stereo) | 158 to 162
52 | CCOC(=O)c1cc(NC(=O)c2ccc(Cl)cc2Cl)ccc1Oc1cncc(Cl)c1 | 125 to 127
53 | O=S(CCl)c1ncc(Cl)cn1 (stereo not given) | 90
54 | CCOC(=O)c1csc2cc(OC)ccc12 | 68 to 69
55 | COC(=O)C1CC=C(c2c(-c3ccccc3)[nH]c3ccccc23)CC1 (stereo not given) | 175 to 177
56 | O=c1n(CCCF)nnn1-c1ccc(Cl)cc1F | 62 to 63
57 | Cc1cc2c(cc1C1=NNC(=O)CC1C)NC(=O)C(C)O2 (stereo not given) | 190 to 191
58 | O=C(O)CCCNC(=O)c1ccccc1NC(=O)c1ccccc1[N+](=O)[O-] | 142 to 144
59 | O=C1c2sccc2-n2cncc2[C@@H]2CCCN12 | 228 to 230
60 | O=C(C=CCC(Nc1cc(Cl)cc(Cl)c1I)C(=O)OCc1ccccc1)Nc1ccccc1 (stereo not given) | 146 to 148
61 | C[C@@H](NC(=O)c1c[nH]c2ncc(-c3nn(CCCO)c4cc(Cl)ccc34)nc12)C(=O)N1CC(C#N)C1 | 240 to 250
62 | COc1ccc2c(c1)N(CC#N)CCO2 | 73 to 74
63 | CCOC(=O)c1c(N(C)CCO)c2ccc(C)nc2n(CC)c1=O | 111 to 113
64 | COCCO[C@@H]1c2ccn3c(CO)c(C)nc3c2N[C@H](c2ccccc2)[C@H]1O | 180 to 183
65 | CCOP(=O)(OCC)OC(=Cc1nccn1C)C(F)(F)F | 54 to 64
66 | Cc1cccc(Cn2c(NC3CCN(CCNc4ncccn4)CC3)nc3cccnc32)n1 | 187
67 | COC(=O)c1ccc(C=C2Cc3ccccc3C2=O)cc1 | 194 to 198
68 | COc1ccc(-c2c(Cl)c(CN3C(=O)CCC3=O)nc3sc4c(c23)CCN(C(=O)C(F)(F)F)C4)cc1 | 250 to 252
69 | CCN(CC)c1nc(-c2ccc(OC)cc2)nc2sc(C#N)c(C)c12 | 154 to 156
70 | O=S(=O)(c1ccccc1)C(Cc1ccccc1)c1ccc(C(O)(C(F)(F)F)C(F)(F)F)cc1 (stereo not given) | 157
71 | N#Cc1ccc(C=Cc2ccc(OCC(O)CO)cc2)cc1 (stereo not given) | 172 to 173
72 | CCC(O)(CC)Cc1ccc(NC(=O)/C=C/c2cnn(C)c2-c2ccc(F)cc2)cc1 | 150 to 151
73 | CC(NC(=O)C(CS)C(C)c1ccc(O)cc1)C(=O)O (stereo not given) | 72
74 | O=C(O)CNC(=NS(=O)(=O)c1ccccc1)Nc1cccc(Cl)c1 | 218
75 | Cn1cc2c(n1)-c1c(Cc3ccccc3)sc(C(N)=O)c1CC2 | 212 to 213

Row | Compound | melting point [°C]
76 | Cc1ccc2cccc(OCc3cccc(NC(=O)CN4C(=O)c5ccccc5C4=O)c3C)c2n1 | 283 to 285
77 | O=S(=O)(Nc1ccc2c(OCc3cccc(-c4ccc(C(F)(F)F)cc4)n3)cccc2c1)C(F)(F)F | 180 to 182
78 | O=C(Oc1ccc(CS(=O)(=O)Cc2ccc(OC(=O)C3CC3)c([N+](=O)[O-])c2)cc1[N+](=O)[O-])C1CC1 | 114 to 116
79 | COc1ccc(CC(C#N)c2cc(OC)c(OC)c(OC)c2)cc1 (stereo not given) | 82 to 83
80 | O=C(O)CC(NC(=O)C(Cl)Cl)C(=O)O (stereo not given) | 165 to 168
81 | Cc1cc2c(=O)n3cc(C(=O)O)ccc3nc2s1 | 312 to 315
82 | Nc1nc(O)c2c(n1)NCC(CCc1cc(C(=O)O)n[nH]1)C2 (stereo not given) | > 260
83 | Cc1nc(C(F)(F)F)ccc1C(=O)C1=C(O)C2CC2C(C)(S(C)=O)C1=O (stereo not given) | 160
84 | Nc1cccc2c1ncc1nc3n(c12)CCCC3 | 275 to 278
85 | COc1cccc(-c2cccc(Oc3nc(OC)cc(OC)n3)c2C(=O)O)n1 | 158 to 160
86 | COC(=O)COc1ccc(C(=O)c2ccccc2)c(O)c1 | 131 to 134
87 | COC(=O)c1cc2c(C)ccc(C)c2n1OC(C)=O | 87 to 88
88 | CC(C)c1ccc2c(c1)[C@H]1Cc3ccccc3[C@H]1N2 (relative stereo) | 104
89 | C=C1C=C(Oc2cc(C(=O)OC)ccc2OC)C1(F)F | 60 to 62
90 | O=C(O)C(=O)c1ccc(OCCCn2c(=O)ccc3ccccc32)cc1 | 183 to 186
91 | CC(=O)Oc1cccc2c1C(=O)c1c(O)cccc1C2C(=O)C1CCCCC1 (stereo not given) | 154
92 | CCOC(=O)C(C)(Cc1ccc(OCCN2CCCCC2)cc1)S(=O)(=O)c1ccc(OC)cc1 (stereo not given) | 106
93 | CN(CCCCCCO)c1ccc(C=Cc2ccc(S(C)(=O)=O)cc2)cc1 | 113 to 115
94 | Cn1cncc1S(=O)(=O)O | 286 to 287
95 | CC1(COCc2ccccc2)COC(C)(C(=O)N(C(N)=O)c2ccccc2)O1 (stereo not given) | 91 to 94
96 | CC(C)(C)NC(=O)c1nn(-c2ccc(Cl)cc2)c2c1[C@@H]1CC[C@H]2C1 | 159 to 162
97 | OC(Cc1ccc(Cl)cc1)Cn1cncn1 (stereo not given) | 104 to 106
98 | Cc1nc2ccc3c(c2o1)OC(CN1CCC2(CC1)C(=O)NCN2c1ccccc1)CO3 (stereo not given) | 240
99 | O=C(O)CCC(=O)c1ccc(F)c(Br)c1 | 108 to 110
100 | Oc1ccc(Nc2ncc3ncc(-c4cccc(O)c4)cc3n2)cc1 | > 268
